Test results taken from patent US8889883B2, “BODIPY structure fluorescence dye for neural stem cell probe” (National University of Singapore, priority 2010, dated 2014).

Tested on: E14.5 fetal mouse brain cells
Assay: Neurosphere assay of FACS-sorted fetal mouse brain cells
Type: cell-based
Details: CDr3, SSEA-1, Aldefluor, CD133 sorted cells
Method: Next, we were interested to test whether CDr3 can be used for the isolation of NSC from the heterogeneous populations of cells. According to the protocol described by Bibel et al.^7, we induced differentiation of E14 to generate FABP7-positive radial glial cells. The embryoid bodies generated from E14 in the absence of leukemia inhibitory factor were treated with retinoic acid for 2 days until dissociation into single cell suspension. The cells were stained with CDr3 and the CDr3bright and CDr3dim cells were collected separately by FACS. Each cell population was stained with FABP7 antibody and analyzed by flow cytometry. […] For the NSC isolation from the brain tissue, we incubated the E14.5 fetal mouse brain primary cells with CDr3, and the CDr3^bright and CDr3^dim cells were collected separately by FACS for gene expression analysis by real time RT-PCR and neurosphere assay. The expression levels of FABP7, Hes1, Musashi, Nestin and Pax6 in CDr3^bright cells were more than 3-fold higher than in CDr3^dim cells, while the differences of Hes5, Sox2 and Bmi1 expression levels were less than 2-fold (FIG. 5). […]
E14.5 fetal mouse brains were trypsinized in 0.25% trypsin with 1 mM EDTA solution (Invitrogen) for 30 mins at 37° C. before neutralization with FBS. […] The number and size of neurospheres generated from each group were measured after 6 days culture. […]

With Cc1cc(C)n2c1C=C1C=CC(CCC(=O)NCC=O)=[N+]1[B-]2(F)F [Aldefluor, BODIPY-aminoacetaldehyde] the “sizes of neurospheres from sorted cells” value was “all similar”.
